Patent US20160312240A1, “MODIFIED PYR/PYL RECEPTORS ACTIVATED BY ORTHOGONAL LIGANDS” (The Regents of the University of California, priority 2010, published 2016)

Columns and labels:
[1] = tested on: PYR/PYL-PP2C protein-protein interactions; experiment: Yeast competition screen: reduction of ABA-promoted PYR/PYL-PP2C interaction; assay type: cell-based; conditions: 100 nM ABA and 100 μM test chemical (1000-fold excess), yeast strains
Text: To isolate PYR1 orthogonal receptors, a two-step process was used. First, a large collection of compounds was screened to identify compounds that weakly interact with receptors, defined as such by their ability to displace receptor-bound ABA in competition experiments. Once weak binders were identified, those with the most desirable properties from an end-use perspective were used as targets for iterative mutagenesis and selection schemes. Pre-selection of weak-binding ligands improves the frequency of isolating new receptor proteins, because fewer alterations of the ligand binding site are required to achieve molecular recognition. However, pre-selection is not a prerequisite for success.
Pre-selection of ligands. 74 structurally diverse agrochemicals were obtained, selected from a larger set of approximately 1500 commercially available agrochemicals. These 74 compounds were tested for their ability to reduce ABA-promoted PYR/PYL-PP2C protein-protein interactions in suitable yeast strains when added at 1000-fold excess relative to ABA (i.e. 100 nM ABA and 100 μM test chemical).

PYR1 = PYR1 (Arabidopsis thaliana, UniProt O49686); conditions: cited from earlier work
Sequence of PYR1 (O49686 whole entry): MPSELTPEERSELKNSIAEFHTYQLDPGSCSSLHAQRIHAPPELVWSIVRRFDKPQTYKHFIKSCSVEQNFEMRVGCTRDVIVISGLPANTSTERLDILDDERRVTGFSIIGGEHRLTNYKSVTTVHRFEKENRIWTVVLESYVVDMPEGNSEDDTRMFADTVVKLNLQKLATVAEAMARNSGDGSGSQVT

PYL1 = PYL1 (Arabidopsis thaliana, UniProt Q8VZS8); conditions: cited from earlier work
Sequence of PYL1 (Q8VZS8 whole entry): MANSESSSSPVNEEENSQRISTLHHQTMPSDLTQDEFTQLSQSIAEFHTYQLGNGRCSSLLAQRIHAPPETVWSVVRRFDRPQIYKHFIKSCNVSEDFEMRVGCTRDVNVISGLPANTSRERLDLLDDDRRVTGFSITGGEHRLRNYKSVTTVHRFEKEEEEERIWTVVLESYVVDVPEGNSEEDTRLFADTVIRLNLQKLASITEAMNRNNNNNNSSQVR

PYL2 = PYL2 (Arabidopsis thaliana, UniProt O80992); conditions: cited from earlier work
Sequence of PYL2 (O80992 whole entry): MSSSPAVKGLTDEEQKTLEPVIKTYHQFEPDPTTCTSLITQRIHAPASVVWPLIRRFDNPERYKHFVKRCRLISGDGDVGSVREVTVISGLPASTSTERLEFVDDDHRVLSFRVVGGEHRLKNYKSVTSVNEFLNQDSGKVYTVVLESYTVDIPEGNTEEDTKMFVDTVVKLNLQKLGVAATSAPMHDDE

PYR1 mutant BTH-9 = molecular target: T1, PYR1 mutant BTH-9 (Arabidopsis thaliana, UniProt O49686, F159L); experiment: Yeast two-hybrid assay confirming BTH responsiveness; assay type: cell-based; conditions: 50, 100, and 200 μM (applied 25, 50, 100, 200 μM)
T1 construct: expressed in transfected cells; host or cells: Saccharomyces cerevisiae two-hybrid reporter strain expressing pAD-HAB1 (strain not restated for BTH)
T1 sequence (O49686 whole entry F159L): as the sequence (O49686 whole entry) above, with F159L counted along it
T1 sequence (Q9CAJ0 23-511 partner): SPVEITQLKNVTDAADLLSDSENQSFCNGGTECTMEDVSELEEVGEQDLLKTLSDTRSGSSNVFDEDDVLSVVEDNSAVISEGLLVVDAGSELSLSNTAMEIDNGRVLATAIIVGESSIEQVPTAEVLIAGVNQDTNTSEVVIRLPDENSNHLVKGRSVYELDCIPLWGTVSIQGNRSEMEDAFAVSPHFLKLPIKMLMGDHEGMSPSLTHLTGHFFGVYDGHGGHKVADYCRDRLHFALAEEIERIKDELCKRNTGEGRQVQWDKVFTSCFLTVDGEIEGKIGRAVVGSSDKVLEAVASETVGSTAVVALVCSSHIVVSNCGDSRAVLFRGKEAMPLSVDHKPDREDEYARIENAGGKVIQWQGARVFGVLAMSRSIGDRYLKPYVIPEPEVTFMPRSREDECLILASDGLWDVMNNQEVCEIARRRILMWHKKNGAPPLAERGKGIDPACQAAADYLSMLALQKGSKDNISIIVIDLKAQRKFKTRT
Description: (§1) Plasmids for three representative mutant clones (27-9, 27-18, and 27-36) were isolated from the primary yeast cells and transformed into a pAD-HAB1 expressing YRG-2 reporter strain (Park et al., Science 324:1068-1071 (2009)) in which Ga14 drives expression of a LacZ reporter gene to allow colorimetric indication of agonist response. Fenhexamid was applied at concentrations of 1, 5, 10, 25, and 50 μM. […] Mutant 27-36 was responsive to fenhexamid at 25 and 50 μM concentrations.
Given the plasticity of PYR1 indicated by these experiments, we sought to establish if an orthogonal receptor could be isolated for a target ligand that was not prescreened for weak binding using the yeast competition assays described above. The same screening methodology as described above was used to screen for mutants that respond to BTH (acibenzolar-s-methyl). […] Yeast two-hybrid assay confirmed BTH responsiveness for representative mutant clone BTH-9. […] was applied at concentrations of 25, 50, 100, and 200 μM, and mutant BTH-9 was responsive to BTH at concentrations of 50, 100, and 200 μM. Thus, the plasticity of PYR1 enables many orthogonal receptor variants to be isolated.

PYR1 mutant 74A-2 = molecular target: T2, PYR1 mutant 74A-2 (Arabidopsis thaliana, UniProt O49686, K59R/S92T); experiment: Yeast two-hybrid assay confirming bromoxynil responsiveness; assay type: cell-based; conditions: 10, 25, and 50 μM (applied 5, 10, 25, 50 μM)
T2 construct: expressed in transfected cells; host or cells: Saccharomyces cerevisiae two-hybrid reporter strain expressing pAD-HAB1 (YRG-2 is named only for the fenhexamid confirmation)
T2 sequence (O49686 whole entry K59R/S92T): as the sequence (O49686 whole entry) above, with K59R, S92T counted along it
T2 sequence (Q9CAJ0 23-511, further chain): as the sequence (Q9CAJ0 23-511 partner) above
Description: as §1
(§2) Screens for bromoxynil (Table 2), dichlobenil (Table 3), and benoxacor (Table 4) responsive PYR1 mutants were conducted as described above for fenhexamid, each utilizing 200 μM test compound and the A′ library, generated as described above. Yeast two-hybrid assay confirmed bromoxynil responsiveness for representative mutant clones 74A-1 and 74A-2. Bromoxynil was applied at concentrations of 5, 10, 25, and 50 μM. Both mutants 74A-1 and 74A-2 were responsive to bromoxynil at concentrations of 10, 25, and 50 μM.

PYR1 mutant 74A-1 = molecular target: T3, PYR1 mutant 74A-1 (Arabidopsis thaliana, UniProt O49686, H60R/K59R/N151D); experiment: as above; assay type: cell-based; conditions: 10, 25, and 50 μM (applied 5, 10, 25, 50 μM)
T3 construct: expressed in transfected cells
T3 sequence (Q9CAJ0 23-511): as the sequence (Q9CAJ0 23-511 partner) above
T3 sequence (O49686 whole entry K59R/H60R/N151D): as the sequence (O49686 whole entry) above, with K59R, H60R, N151D counted along it
Description: as §1, §2

PYR/PYL receptors = experiment: Observed weak agonism of PYR/PYL receptors; conditions: weak PYR/PYL agonist
Description: (§3) To test these two hypotheses, a series of K59 mutants were constructed in PYR1 and examined for their sensitivity to the native ligand ABA and the orthogonal ligand dichlobenil (Table 6). Dichlobenil was chosen as a model orthogonal ligand for these studies because it was observed that it is a weak PYR/PYL agonist (i.e., it can weakly activate receptors at concentrations of 200 μM or higher). Dichlobenil therefore provides a useful test molecule with which to probe a mutant's sensitivity to an orthogonal ligand.

wild-type PYR1 (WT) = wild-type PYR1 (WT) (Arabidopsis thaliana, UniProt O49686); experiment: Responsiveness of PYR1 K59 mutants to ABA and dichlobenil; assay type: cell-based
Sequence of wild-type PYR1 (WT) (O49686 whole entry): as the sequence (O49686 whole entry) above
Sequence of wild-type PYR1 (WT) (Q9CAJ0 23-511 partner): as the sequence (Q9CAJ0 23-511 partner) above
Description: as §3

wild-type PYR1 protein = molecular target: T4, wild-type PYR1 protein (Arabidopsis thaliana, UniProt O49686); experiment: In vitro PP2C phosphatase activity assay (receptor activation = inhibition of PP2C); assay type: biochemical; conditions: increasing concentrations, 10 mM Mn++ buffer, FIG. 1
T4 construct: made in house
T4 sequence (O49686 whole entry): as the sequence (O49686 whole entry) above
T4 sequence (Q9CAJ0 23-511 partner): as the sequence (Q9CAJ0 23-511 partner) above
Description: (§4) FIGS. 1A-1B. PYR1 mutant 27-18 confers responsiveness to fenhexamid but not ABA. Representative PYR1 mutant 27-18 (comprising S47P, K59R, and Y120H substitution mutations) was tested for responsiveness to abscisic acid (“ABA”) (FIG. 1A) and fenhexamid (FIG. 1B) at increasing concentrations as compared to a wild-type PYR1 control using an in vitro PP2C phosphatase activity assay.
(§5) To probe orthogonal receptor-ligand interactions further, recombinant protein was expressed for the fenhexamid-responsive mutant 27-18, which has three mutations in PYR1. 6×-His-PYR1(27-18) protein was expressed and purified alongside wild-type PYR1 protein. Both proteins were tested for their ability to inhibit PP2C activity in response to increasing concentrations of either ABA or fenhexamid using phosphatase activity assays, in which activation of the PYR/PYL receptor is monitored by inhibition of PP2C activity (FIG. 1).

[2] = molecular target: T5, 6×-His-PYR1(27-18) (S47P, K59R, Y120H) (Arabidopsis thaliana, UniProt O49686, K59R/S47P/Y120H); experiment: as above; assay type: biochemical; conditions: mutant 27-18; increasing concentrations; 10 mM Mn++ buffer; FIG. 1
T5 construct: 6x-His (N); made in house
T5 sequence (O49686 whole entry S47P/K59R/Y120H): as the sequence (O49686 whole entry) above, with S47P, K59R, Y120H counted along it
T5 sequence (Q9CAJ0 23-511, stated change not applied, further chain): as the sequence (Q9CAJ0 23-511 partner) above
Description: as §4, §5

SMILES: O=c1oc2ccccc2c(O)c1C1CCCc2ccccc21 (centres unmarked) [coumatetralyl]
- ability to reduce ABA-promoted PYR/PYL-PP2C protein-protein interactions [1]: compete for ABA

SMILES: O=S(=O)(NCc1ccccn1)c1ccc(Br)c2ccccc12 [pyrabactin]
- Responsiveness to pyrabactin (PYR1): strong responsiveness
- Responsiveness to pyrabactin (PYL1): strong responsiveness
- Responsiveness to pyrabactin (PYL2): do not

SMILES: CSC(=O)c1cccc2nnsc12 [BTH, acibenzolar-s-methyl]
- Responsiveness to BTH (yeast two-hybrid) (PYR1 mutant BTH-9): responsive

SMILES: N#Cc1cc(Br)c(O)c(Br)c1 [bromoxynil]
- Responsiveness to bromoxynil (yeast two-hybrid) (PYR1 mutant 74A-2): responsive
- Responsiveness to bromoxynil (yeast two-hybrid) (PYR1 mutant 74A-1): responsive
- ability to reduce ABA-promoted PYR/PYL-PP2C protein-protein interactions [1]: compete for ABA

SMILES: N#Cc1c(Cl)cccc1Cl [dichlobenil]
- Concentration at which receptors are weakly activated (PYR/PYL receptors): ≥ 200 µM
- Responsiveness, Dichlobenil [50 μM] (wild-type PYR1 (WT)): not activated
- ability to reduce ABA-promoted PYR/PYL-PP2C protein-protein interactions [1]: compete for ABA

SMILES: CC1=CC(=O)CC(C)(C)[C@@]1(O)/C=C/C(C)=C\C(=O)O [ABA, abscisic acid]
- Receptor activation (inhibition of PP2C activity) (wild-type PYR1 protein): efficiently activated
- Receptor activation (inhibition of PP2C activity) [2]: failed to activate

SMILES: N#Cc1cc(Cl)c(O)c(Cl)c1 [chloroxynil]
- ability to reduce ABA-promoted PYR/PYL-PP2C protein-protein interactions [1]: compete for ABA
